Measurements: PubChem BioAssay (NCI)
Several values for one entry are separate records, joined by “and”; a condition that tells them apart may be missing. Identical values can stand only once.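 Compound exposure: 48 hours, 5 concentrations, 96-well plates. GI50 marks 50% less growth. TGI: concentration producing complete growth inhibition.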

Assays:
Assay in all cases: NCI tumour cell line growth inhibition, 48 h
786-0 renal = system: 786-0 renal
A498 renal = system: A498 renal
A549 NSCLC = system: A549 NSCLC
ACHN renal = system: ACHN renal
BT-549 breast = system: BT-549 breast
CAKI-1 renal = system: CAKI-1 renal
CCRF-CEM leukemia = system: CCRF-CEM leukemia
COLO 205 colon = system: COLO 205 colon
DU-145 prostate = system: DU-145 prostate
EKVX NSCLC = system: EKVX NSCLC
HCC-2998 colon = system: HCC-2998 colon
HCT-116 colon = system: HCT-116 colon
HCT-15 colon = system: HCT-15 colon
HL-60(TB) leukemia = system: HL-60(TB) leukemia
HOP-62 NSCLC = system: HOP-62 NSCLC
HOP-92 NSCLC = system: HOP-92 NSCLC
HS 578T breast = system: HS 578T breast
HT29 colon = system: HT29 colon
IGROV1 ovarian = system: IGROV1 ovarian
K-562 leukemia = system: K-562 leukemia
KM12 colon = system: KM12 colon
LOX IMVI melanoma = system: LOX IMVI melanoma
M14 melanoma = system: M14 melanoma
MALME-3M melanoma = system: MALME-3M melanoma
MCF7 breast = system: MCF7 breast
MDA-MB-231 breast = system: MDA-MB-231 breast
MDA-MB-435 = system: MDA-MB-435
MOLT-4 leukemia = system: MOLT-4 leukemia
NCI-H226 lung = system: NCI-H226 lung
NCI-H23 lung = system: NCI-H23 lung
NCI-H460 lung = system: NCI-H460 lung
NCI-H522 lung = system: NCI-H522 lung
NCI/ADR-RES ovarian = system: NCI/ADR-RES ovarian
OVCAR-3 ovarian = system: OVCAR-3 ovarian
OVCAR-4 ovarian = system: OVCAR-4 ovarian
OVCAR-5 ovarian = system: OVCAR-5 ovarian
OVCAR-8 ovarian = system: OVCAR-8 ovarian
PC-3 prostate = system: PC-3 prostate
RPMI-8226 leukemia = system: RPMI-8226 leukemia
RXF 393 renal = system: RXF 393 renal
SF-268 CNS = system: SF-268 CNS
SF-295 CNS = system: SF-295 CNS
SF-539 CNS = system: SF-539 CNS
SK-MEL-2 melanoma = system: SK-MEL-2 melanoma
SK-MEL-28 melanoma = system: SK-MEL-28 melanoma
SK-MEL-5 melanoma = system: SK-MEL-5 melanoma
SK-OV-3 ovarian = system: SK-OV-3 ovarian
SN12C renal = system: SN12C renal
SNB-19 CNS = system: SNB-19 CNS
SNB-75 CNS = system: SNB-75 CNS
SR leukemia = system: SR leukemia
SW-620 colon = system: SW-620 colon
T-47D breast = system: T-47D breast
TK-10 renal = system: TK-10 renal
U251 CNS = system: U251 CNS
UACC-257 melanoma = system: UACC-257 melanoma
UACC-62 melanoma = system: UACC-62 melanoma
UO-31 renal = system: UO-31 renal

For `CC1(C)[C@H](O)[C@H](F)C[C@@]2(C)Oc3ccc(C(=O)Nc4ccc5c(c4)NC(=O)C54CCN(CCCCC#N)CC4)cc3C[C@H]12`, which GI50 (786-0 renal) is on record?
The GI50 was 26.7 nM.

And the TGI (786-0 renal)?
The TGI was 1800 nM and 4760 nM.

And the GI50 (A498 renal)?
Its GI50 is 34.1 nM.

What about the TGI (A498 renal) of the same compound?
The TGI was 548 nM.

And the TGI (A549 NSCLC)?
The TGI was 8400 nM.

What about the GI50 (ACHN renal) of the same compound?
Its GI50 is 961 nM and 5290 nM.

And the TGI (ACHN renal)?
Its TGI is 23200 nM.

What about the GI50 (BT-549 breast) of the same compound?
The GI50 was 18.6 nM.

And the TGI (BT-549 breast)?
Its TGI is 6310 nM and 8370 nM.

And the TGI (CAKI-1 renal)?
Its TGI is 38500 nM.

What about the GI50 (CCRF-CEM leukemia) of the same compound?
The GI50 was 9.49 nM.

What about the TGI (CCRF-CEM leukemia) of the same compound?
The TGI was 5980 nM and 6980 nM.

What about the GI50 (COLO 205 colon) of the same compound?
The GI50 was 1240 nM and 1140 nM.

What about the TGI (COLO 205 colon) of the same compound?
Its TGI is 3420 nM and 3630 nM.

What about the TGI (DU-145 prostate) of the same compound?
Its TGI is 17300 nM.

What about the GI50 (EKVX NSCLC) of the same compound?
The GI50 was 4010 nM and 4250 nM.

What about the TGI (EKVX NSCLC) of the same compound?
The TGI was 22100 nM.

What about the GI50 (HCC-2998 colon) of the same compound?
Its GI50 is 6760 nM and 2710 nM.

And the TGI (HCC-2998 colon)?
The TGI was 15000 nM.

And the GI50 (HCT-116 colon)?
The GI50 was 149 nM and 1330 nM.

What about the TGI (HCT-116 colon) of the same compound?
The TGI was 10700 nM.

What about the GI50 (HCT-15 colon) of the same compound?
The GI50 was 5430 nM and 1590 nM.

And the TGI (HCT-15 colon)?
Its TGI is 19100 nM.

What about the GI50 (HL-60(TB) leukemia) of the same compound?
Its GI50 is 58.3 nM.

And the TGI (HL-60(TB) leukemia)?
The TGI was 6040 nM.

And the GI50 (HOP-62 NSCLC)?
Its GI50 is 1280 nM and 1130 nM.

What about the TGI (HOP-62 NSCLC) of the same compound?
The TGI was 5610 nM.

What about the GI50 (HOP-92 NSCLC) of the same compound?
Its GI50 is 9.86 nM.

And the TGI (HOP-92 NSCLC)?
Its TGI is 3280 nM and 8090 nM.

And the GI50 (HS 578T breast)?
Its GI50 is 2.65 nM.

And the TGI (HS 578T breast)?
The TGI was 35 nM and 35.2 nM.

And the GI50 (HT29 colon)?
Its GI50 is 1800 nM and 1690 nM.

What about the TGI (HT29 colon) of the same compound?
Its TGI is 6730 nM.

What about the GI50 (IGROV1 ovarian) of the same compound?
Its GI50 is 2050 nM and 3630 nM.

What about the TGI (IGROV1 ovarian) of the same compound?
The TGI was 34400 nM.

What about the GI50 (K-562 leukemia) of the same compound?
Its GI50 is 57.3 nM and 12 nM.

And the TGI (K-562 leukemia)?
Its TGI is 4810 nM and 1480 nM.

What about the GI50 (KM12 colon) of the same compound?
Its GI50 is 463 nM and 707 nM.

What about the TGI (KM12 colon) of the same compound?
The TGI was 9790 nM and 11900 nM.

What about the GI50 (LOX IMVI melanoma) of the same compound?
Its GI50 is 39.6 nM.

What about the TGI (LOX IMVI melanoma) of the same compound?
Its TGI is 2820 nM and 2170 nM.

What about the GI50 (M14 melanoma) of the same compound?
The GI50 was 606 nM and 1060 nM.

What about the TGI (M14 melanoma) of the same compound?
The TGI was 4970 nM and 3790 nM.

And the GI50 (MALME-3M melanoma)?
Its GI50 is 332 nM and 1040 nM.

What about the TGI (MALME-3M melanoma) of the same compound?
Its TGI is 3100 nM and 3430 nM.

And the GI50 (MCF7 breast)?
Its GI50 is 9.95 nM.

What about the TGI (MCF7 breast) of the same compound?
Its TGI is 9630 nM and 8280 nM.

And the GI50 (MDA-MB-231 breast)?
The GI50 was 842 nM and 537 nM.

And the TGI (MDA-MB-231 breast)?
Its TGI is 8560 nM.

What about the GI50 (MDA-MB-435) of the same compound?
The GI50 was 90 nM and 94.6 nM.

And the TGI (MDA-MB-435)?
The TGI was 1830 nM and 2940 nM.

What about the GI50 (MOLT-4 leukemia) of the same compound?
The GI50 was 5.68 nM.

What about the TGI (MOLT-4 leukemia) of the same compound?
Its TGI is 1090 nM and 1630 nM.

What about the GI50 (NCI-H226 lung) of the same compound?
Its GI50 is 2910 nM.

What about the TGI (NCI-H226 lung) of the same compound?
Its TGI is 17400 nM.

And the GI50 (NCI-H23 lung)?
Its GI50 is 2440 nM and 2290 nM.

And the TGI (NCI-H23 lung)?
Its TGI is 17800 nM.

What about the GI50 (NCI-H460 lung) of the same compound?
The GI50 was 65.3 nM.

And the TGI (NCI-H460 lung)?
Its TGI is 10900 nM.

What about the GI50 (NCI-H522 lung) of the same compound?
The GI50 was 1770 nM and 1020 nM.

What about the TGI (NCI-H522 lung) of the same compound?
The TGI was 7860 nM and 2520 nM.

And the GI50 (NCI/ADR-RES ovarian)?
The GI50 was 42900 nM.

And the TGI (NCI/ADR-RES ovarian)?
The TGI was over 100000 nM.

And the GI50 (OVCAR-3 ovarian)?
Its GI50 is 3820 nM and 12000 nM.

And the TGI (OVCAR-3 ovarian)?
Its TGI is 30400 nM.

And the GI50 (OVCAR-4 ovarian)?
Its GI50 is 4310 nM and 6310 nM.

And the TGI (OVCAR-4 ovarian)?
Its TGI is 20400 nM.

What about the GI50 (OVCAR-5 ovarian) of the same compound?
The GI50 was 5410 nM and 5820 nM.

What about the TGI (OVCAR-5 ovarian) of the same compound?
The TGI was 34500 nM.

What about the GI50 (OVCAR-8 ovarian) of the same compound?
Its GI50 is 5360 nM.

What about the TGI (OVCAR-8 ovarian) of the same compound?
The TGI was 45100 nM.

And the GI50 (PC-3 prostate)?
Its GI50 is 22.5 nM.

What about the TGI (PC-3 prostate) of the same compound?
The TGI was 2840 nM and 5240 nM.

What about the GI50 (RPMI-8226 leukemia) of the same compound?
Its GI50 is 2.62 nM.

What about the GI50 (RXF 393 renal) of the same compound?
The GI50 was 2.79 nM.

What about the GI50 (SF-268 CNS) of the same compound?
The GI50 was 413 nM and 400 nM.

And the TGI (SF-268 CNS)?
Its TGI is 10100 nM.

What about the GI50 (SF-295 CNS) of the same compound?
The GI50 was 4.02 nM.

And the TGI (SF-295 CNS)?
The TGI was 18.1 nM.

What about the GI50 (SF-539 CNS) of the same compound?
The GI50 was 6.98 nM.

What about the TGI (SF-539 CNS) of the same compound?
Its TGI is 4770 nM and 2500 nM.

And the GI50 (SK-MEL-2 melanoma)?
The GI50 was 1140 nM.

And the TGI (SK-MEL-2 melanoma)?
The TGI was 2440 nM.

What about the GI50 (SK-MEL-28 melanoma) of the same compound?
The GI50 was 1250 nM and 1200 nM.

What about the TGI (SK-MEL-28 melanoma) of the same compound?
Its TGI is 3610 nM and 3430 nM.

What about the TGI (SK-MEL-5 melanoma) of the same compound?
The TGI was 2900 nM and 1550 nM.

What about the GI50 (SK-OV-3 ovarian) of the same compound?
Its GI50 is 2100 nM and 341 nM.

And the TGI (SK-OV-3 ovarian)?
The TGI was 3540 nM.

And the GI50 (SN12C renal)?
The GI50 was 11700 nM.

And the TGI (SN12C renal)?
The TGI was 42400 nM.

And the GI50 (SNB-19 CNS)?
Its GI50 is 412 nM and 1070 nM.

And the TGI (SNB-19 CNS)?
The TGI was 6810 nM.

And the GI50 (SNB-75 CNS)?
Its GI50 is 6.79 nM.

And the TGI (SNB-75 CNS)?
Its TGI is 6380 nM and 2200 nM.

What about the GI50 (SR leukemia) of the same compound?
Its GI50 is 10.6 nM.

And the TGI (SR leukemia)?
Its TGI is 2600 nM.

And the GI50 (SW-620 colon)?
Its GI50 is 94.3 nM and 40.5 nM.

And the TGI (SW-620 colon)?
Its TGI is 2520 nM and 2680 nM.

What about the GI50 (T-47D breast) of the same compound?
The GI50 was 3760 nM and 2490 nM.

What about the TGI (T-47D breast) of the same compound?
Its TGI is 26100 nM.

What about the GI50 (TK-10 renal) of the same compound?
The GI50 was 3440 nM.

And the TGI (TK-10 renal)?
The TGI was 14700 nM.

What about the GI50 (U251 CNS) of the same compound?
Its GI50 is 4.14 nM.

What about the TGI (U251 CNS) of the same compound?
The TGI was 2020 nM.

And the GI50 (UACC-257 melanoma)?
The GI50 was 1570 nM.

What about the TGI (UACC-257 melanoma) of the same compound?
Its TGI is 5020 nM.

And the GI50 (UACC-62 melanoma)?
The GI50 was 30.8 nM.

And the TGI (UACC-62 melanoma)?
The TGI was 1130 nM and 1120 nM.

What about the GI50 (UO-31 renal) of the same compound?
Its GI50 is 456 nM and 558 nM.

What about the TGI (UO-31 renal) of the same compound?
The TGI was 8320 nM and 11400 nM.
